Test results from patent US9068194B2, “Increasing plant growth by modulating omega-amidase expression in plants” (Los Alamos National Security, LLC, priority 2010, dated 2015).
Values joined by “and” are separate entries in the source; they are usually repeats but may differ in a detail not shown here. Equal entries are not always repeated.

Experiments:
Ω-amidase in corn roots = assay: Treatment of sweet corn roots with ω-amidase inhibitor DON (hydroponic); assay type: in vivo
Procedure: (§1) HPLC Assay for 2-oxoglutaramate: HPLC was used to assay 2-oxoglutaramate, following a modification of Calderon et al., 1985, J Bacteriol 161(2): 807-809. Briefly, 2-oxoglutaramate was extracted from plant tissue in distilled de-ionized water acidified to less than pH 2.0 with HCl using a weight to volume ratio of 2:1. 2-Oxoglutaramate was detected and quantified by HPLC, using an ION-300 7.8 mm ID×30 cm L column, with a mobile phase in 0.01NH2SO4, a flow rate of approximately 0.2 ml/min, at 40° C. Injection volume is approximately 20 and retention time between about 38 and 39 minutes. Detection is achieved with 210 nm UV light. Authentic 2-oxoglutaramate was used to calibrate the assay.
(§2) Ω-amidase activity was determined using the 96-well plate assay as described in Krasnikov et al., 2009, Analytical Biochemistry 391: 144-150.
(§3) Columbia nutrient solution was utilized (Knight and Weissman, 1982, Plant Physiol. 70: 1683).
(§4) Plants were grown hydroponically at 24° C. using a 16 hour/day light and 8 hour/day dark photoperiod. Seeds were first germinated and seedlings were grown for 9 days, at which time the individual seedlings were suspended with their roots in the nutrient solution (600 ml of nutrient, pH 6.3) in an 800 ml beaker covered with aluminum foil, with a slit for the seedlings, to prevent algal growth. The beakers were aerated with air provided by a small pump and delivered into the solution through a glass Pasteur pipette. For the treatments, DON was added to the nutrient solution to a final concentration of 1 microgram per ml. Thus DON was supplied continuously to the treated seedlings. The controls were grown in the same nutrient solution without DON. The solutions were refreshed every third day. Plants were sacrificed and analyzed for fresh weight, ω-amidase activity, and 2-oxoglutaramate concentrations in leaf and root tissue 14 days after initiation of treatment.

Ω-amidase in bean roots = assay: Treatment of pole bean roots with ω-amidase inhibitor DON (hydroponic); assay type: in vivo
Procedure: as §1, §2, §3, §4

Ω-amidase in corn leaves = assay: Treatment of corn leaves with ω-amidase inhibitor DON (foliar spray); assay type: in vivo
Procedure: as §1, §2, §3
Plants were grown in sand at 24° C. using a 16 hour/day light and 8 hour/day dark photoperiod. Seeds were germinated in the sand and allowed to grow for 9-14 days after seedling emergence. Seedlings (1 per 3 inch pot) were provided nutrients daily. The top of each pot was covered with Saran plastic film, with a slit cut to allow the seedlings room to emerge, in order to prevent treatment solution from reaching the soil. Leaves were treated by spraying DON treatment/nutrient solution twice daily. The DON treatment/nutrient solution contained 1 microgram/ml DON, 50 micoliters/liter SILWET L77 (a surfactant) and 0.02 vol/vol % glycerol (a humectant) at pH 6.3, dissolved in nutrient solution. Control plants were sprayed daily with the same solution without DON. An airbrush was used to apply the solutions until drip. Plants were sacrificed and analyzed for fresh weight, ω-amidase activity, and 2-oxoglutaramate concentrations in leaf and root tissue 14 days after initiation of treatment.

[1] = tested on: GPT (glutamine phenylpyruvate transaminase), substrate glutamine; assay: Kinetic analysis of GPT substitution mutants expressed in E. coli; assay type: biochemical, Arabidopsis; details: enzyme expressed in E. coli
Procedure: Maximal velocity was determined using the formula: Vmax=Kcat[E]tot. The apparent unimolecular rate constant kcat is also called turnover number and denotes the maximum number of enzymatic reactions catalyzed per second.
This mutant GPT enzyme may be expected to produce more product, the 2-oxoglutaramate, per unit time than the wild type GPT when the concentration of the substrate glutamine is present in millimolar or greater quantities, thus assuring that the […] is saturating.

[2] = root treatment 1 microgram per ml DON, 14 days
[3] = bean, root treatment 1 microgram per ml DON, 14 days
[4] = leaf treatment with DON, average of treated plants
[5] = leaves sprayed twice daily with 1 microgram/ml DON, 14 days (Table 17)

## [N-]=[N+]=CC(=O)CC[C@H](N)C(=O)O [DON, 6-diazo-5-oxo-nor-leucine]
Ω-amidase in corn roots; continuous DON treatment of roots
  ω-amidase activity: None of the DON treated plants had detectable levels of ω-amidase activity
Ω-amidase in corn roots; continuous DON treatment of roots, versus untreated control plants
  growth: severely stunted growth
Ω-amidase in corn roots; [2]
  2-OGM ROOT: 2288 nmoles/gfwt
  LEAF/ROOT RATIO (2-OGM): 0.13
Ω-amidase in corn roots; root treatment 1 microgram per ml DON, 14 days, 2-OGM = 2-oxoglutaramate
  2-OGM LEAF: 300 nmoles/gfwt
Ω-amidase in corn roots; root treatment with DON, versus control
  increase of 2-oxoglutaramate in roots: over 30 fold
Ω-amidase in corn roots; roots in nutrient solution with 1 microgram per ml DON continuously, 14 days after initiation of treatment
  % INCREASE IN FWT: 174%
Ω-amidase in bean roots; bean, continuous DON treatment of roots
  ω-amidase activity: None of the DON treated plants had detectable levels of ω-amidase activity
Ω-amidase in bean roots; bean, continuous DON treatment of roots, versus untreated control plants
  growth: severely stunted growth
Ω-amidase in bean roots; [3]
  2-OGM LEAF: 279 nmoles/gfwt
  2-OGM ROOT: 1586 nmoles/gfwt
  LEAF/ROOT RATIO (2-OGM): 0.18
Ω-amidase in bean roots; bean, roots in nutrient solution with 1 microgram per ml DON continuously, 14 days after initiation of treatment
  % INCREASE IN FWT: 198%
Ω-amidase in bean roots; beans, root treatment with DON, versus control
  increase of 2-oxoglutaramate in roots: 15 fold
Ω-amidase in corn leaves; leaf treatment with DON
  corn plant fresh weights versus untreated: near doubling
  increase of 2-oxoglutaramate in leaves over untreated plants: more than 7 fold
  leaf ω-amidase activity relative to untreated plants: about 50%
Ω-amidase in corn leaves; [4]
  Amidase activity Leaf: 0.135 μmole/gfw/hr
  Whole Plant Fresh Wt, Average: 21.4 g
Ω-amidase in corn leaves; leaf treatment with DON, average of treated plants (Table 18)
  2-Oxoglutaramate Concentration: 838.8 nmoles/gfwt
Ω-amidase in corn leaves; leaf treatment with DON, individual treated plants
  Whole Plant Fresh Wt: 20.9 g and 19.2 g and 24.3 g
Ω-amidase in corn leaves; [5]
  2-OGM LEAF: 753.9 nmoles/gfwt
  2-OGM ROOT: 126.8 nmoles/gfwt
  LEAF/ROOT RATIO (2-OGM): 5.0

B1: GPT/F:V mutant: mutant GPT from the natural Arabidopsis GPT, substituting V (valine) for the F (phenylalanine) residue in NLGQGFP; expressed in E. coli (protein)
chain: MYLDINGVMIKQFSFKASLLPFSSNFRQSSAKIHRPIGATMTTVSTQNESTQKPVQVAKRLEKFKTTIFTQMSILAVKHGAINLGQGVPNFDGPDFVKEAAIQAIKDGKNQYARGYGIPQLNSAIAARFREDTGLVVDPEKEVTVTSGCTEAIAAAMLGLINPGDEVILFAPFYDSYEATLSMAGAKVKGITLRPPDFSIPLEELKAAVTNKTRAILMNTPHNPTGKMFTREELETIASLCIENDVLVFSDEVYDKLAFEMDHISIASLPGMYERTVTMNSLGKTFSLTGWKIGWAIAPPHLTWGVRQAHSYLTFATSTPAQWAAVAALKAPESYFKELKRDYNVKKETLVKGLKEVGFTVFPSSGTYFVVADHTPFGMENDVAFCEYLIEEVGVVAIPTSVFYLNPEEGKNLVRFAFCKDEETLRGAIERMKQKLKRKV
modifications: synthetic Arabidopsis glutamine phenylpyruvate transaminase (GPT) mutant GPT/FV with V substitution in conserved region at position 88
notes: mutant GPT from the natural Arabidopsis GPT, substituting V (valine) for the F (phenylalanine) residue in NLGQGFP; expressed in E. coli
[1]
  Km: 750 µM
  increase of Vmax over the wild type: 20%
[1]; same amount of protein
  Vmax: 6.04
